Results: ChEMBL document CHEMBL1201862, “PubChem BioAssay data set” (2004)
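Method: 48-hour compound exposure of cells in 96-well plates, five concentrations, linear interpolation of endpoints. GI50 = concentration required for 50% inhibition of growth.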 Calls of active or inactive are those of the source. Cut-off read from the data, not from the text of the source: active = GI50 up to about 1.1 µM and inactive = higher.

Columns and labels:
Assay in all cases: inhibition of tumour cell growth, NCI panel, 48 h
ACHN = system: ACHN
EKVX = system: EKVX
HCT-15 = system: HCT-15
HOP-62 = system: HOP-62
K562 = system: K562
LOX IMVI = system: LOX IMVI
MOLT-4 = system: MOLT-4
NCI-H23 = system: NCI-H23
OVCAR-4 = system: OVCAR-4
OVCAR-5 = system: OVCAR-5
OVCAR-8 = system: OVCAR-8
SK-MEL-2 = system: SK-MEL-2
SK-MEL-5 = system: SK-MEL-5
SK-OV-3 = system: SK-OV-3
SN12C = system: SN12C
T47D = system: T47D
TK-10 = system: TK-10
UACC-257 = system: UACC-257
UACC-62 = system: UACC-62
NCI-H522 = system: NCI-H522

Row | Structure (SMILES) | GI50 (ACHN) | GI50 (EKVX) | GI50 (HCT-15) | GI50 (HOP-62) | GI50 (K562) | GI50 (LOX IMVI) | GI50 (MOLT-4) | GI50 (NCI-H23) | GI50 (OVCAR-4) | GI50 (OVCAR-5) | GI50 (OVCAR-8) | GI50 (SK-MEL-2) | GI50 (SK-MEL-5) | GI50 (SK-OV-3) | GI50 (SN12C) | GI50 (T47D) | GI50 (TK-10) | GI50 (UACC-257) | GI50 (UACC-62) | GI50 (NCI-H522)
1 | O=C(NC1CCCCC1)c1nn[nH]c1Cl | > 100 µM (inactive) | > 100 µM (inactive) | > 100 µM | > 100 µM (inactive) | > 100 µM (inactive) | > 100 µM (inactive) | > 100 µM (inactive) | > 100 µM (inactive) | > 100 µM (inactive) | > 100 µM (inactive) | > 100 µM (inactive) | > 100 µM (inactive) | > 100 µM (inactive) | > 100 µM (inactive) | > 100 µM (inactive) | > 100 µM (inactive) | > 100 µM (inactive) | > 100 µM (inactive) | > 100 µM (inactive) | –
2 | O=c1cc(-c2ccccc2)nc(-n2[nH]c3c(c2=O)CCCC3)[nH]1 | 3.66 µM (inactive) | 4.94 µM (inactive) | 1.7 µM | – | 2.83 µM (inactive) | – | 2.9 µM (inactive) | 7.33 µM (inactive) | 1.85 µM (inactive) | 92.5 µM (inactive) | – | 2.36 µM (inactive) | 4.78 µM (inactive) | 17.4 µM (inactive) | 10.8 µM (inactive) | 1.56 µM (inactive) | 5 µM (inactive) | 5.86 µM (inactive) | 2.32 µM (inactive) | 12.1 µM (inactive)
3 | CC1CCC2C(C)C(OC(=O)CCC(=O)O)OC3OC4(C)CCC1C32OO4 (centres undefined) | 4.52 µM (inactive) | 6.27 µM (inactive) | 0.388 µM | 16.6 µM (inactive) | 1.32 µM (inactive) | 1.06 µM (active) | 0.346 µM (active) | – | 7.01 µM (inactive) | 1.31 µM (inactive) | 3.47 µM (inactive) | 3.86 µM (inactive) | 1.57 µM (inactive) | 53.6 µM (inactive) | 18 µM (inactive) | 0.828 µM (active) | 2.99 µM (inactive) | 2.17 µM (inactive) | 6.15 µM (inactive) | –
4 | COC(=O)C1(Cc2ccccc2)Cc2ccccc2C1=O (centres undefined) | 36.6 µM (inactive) | 30.3 µM (inactive) | 37.2 µM | 72.1 µM (inactive) | 35 µM (inactive) | 43.7 µM (inactive) | 25.6 µM (inactive) | 45.8 µM (inactive) | 25.4 µM (inactive) | > 100 µM (inactive) | 50.8 µM (inactive) | 19.1 µM (inactive) | 20 µM (inactive) | > 100 µM (inactive) | 35.2 µM (inactive) | 43.1 µM (inactive) | 57 µM (inactive) | 45.8 µM (inactive) | 67.3 µM (inactive) | –
5 | CC1CCCCN1CC(=O)c1ccc2c(c1)Sc1ccccc1O2 (centres undefined) | 15.3 µM (inactive) | 13.3 µM (inactive) | 19.7 µM | 15.5 µM (inactive) | 30.3 µM (inactive) | 9.93 µM (inactive) | 19.3 µM (inactive) | 15.2 µM (inactive) | 13.2 µM (inactive) | 18.1 µM (inactive) | 15 µM (inactive) | 17.9 µM (inactive) | – | 16.4 µM (inactive) | 18.7 µM (inactive) | 20.7 µM (inactive) | 18.7 µM (inactive) | 18.4 µM (inactive) | 13.3 µM (inactive) | –
6 | CC(=O)OC12c3ccccc3C(c3ccccc31)C1C(=O)N(N=C(C)C)C(=O)C12 (centres undefined) | – | > 100 µM (inactive) | > 100 µM | > 100 µM (inactive) | > 100 µM (inactive) | > 100 µM (inactive) | > 100 µM (inactive) | > 100 µM (inactive) | > 100 µM (inactive) | > 100 µM (inactive) | > 100 µM (inactive) | – | > 100 µM (inactive) | > 100 µM (inactive) | > 100 µM (inactive) | 70.8 µM (inactive) | > 100 µM (inactive) | > 100 µM (inactive) | > 100 µM (inactive) | –
7 | CC(=O)/C(=C/N1CC(=O)NC1=S)C(=O)Nc1ccccc1C | > 100 µM (inactive) | > 100 µM (inactive) | > 100 µM | > 100 µM (inactive) | – | > 100 µM (inactive) | > 100 µM (inactive) | > 100 µM (inactive) | > 100 µM (inactive) | > 100 µM (inactive) | > 100 µM (inactive) | > 100 µM (inactive) | > 100 µM (inactive) | > 100 µM (inactive) | > 100 µM (inactive) | > 100 µM (inactive) | > 100 µM (inactive) | > 100 µM (inactive) | – | –
8 | CC(C)C(=O)N1Cc2cc(Cl)cc(Cl)c2OC(=O)c2ccccc21 | 24.5 µM (inactive) | 27.7 µM (inactive) | 27.5 µM | 31.2 µM (inactive) | 51.1 µM (inactive) | 23.3 µM (inactive) | 22.6 µM (inactive) | 66.2 µM (inactive) | 28.8 µM (inactive) | 27 µM (inactive) | 33.7 µM (inactive) | 21.5 µM (inactive) | 19.2 µM (inactive) | 25.9 µM (inactive) | 32.7 µM (inactive) | – | 29.7 µM (inactive) | 17.2 µM (inactive) | 19.8 µM (inactive) | 21 µM (inactive)
